ChEMBL document CHEMBL3638794, “Indazole compounds useful as ketohexokinase inhibitors” (2014)

Target: T1, Ketohexokinase (Homo sapiens, UniProt P50053)
T1 sequence (P50053 whole entry): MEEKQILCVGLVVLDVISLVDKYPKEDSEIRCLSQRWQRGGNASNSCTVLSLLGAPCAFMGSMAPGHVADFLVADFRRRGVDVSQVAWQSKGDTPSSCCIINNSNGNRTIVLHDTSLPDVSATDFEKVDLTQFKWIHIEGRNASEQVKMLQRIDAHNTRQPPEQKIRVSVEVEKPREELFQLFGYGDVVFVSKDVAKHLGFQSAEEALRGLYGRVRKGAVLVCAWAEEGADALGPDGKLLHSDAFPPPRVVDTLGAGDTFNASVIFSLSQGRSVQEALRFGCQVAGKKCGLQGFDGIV
Assay: Enzyme Assay: An enzymatic assay was developed to measure KHK-mediated conversion of D-fructose to Fructose-1-P (F-1-P) using High Throughput Mass Spectroscopy (HTMS) as a means of product detection. […] The assay was carried out in 384-well plate format.

`CSc1nn(-c2ccc(Br)cc2)c2cc(OC3CCNCC3)ccc12` showed an IC50 of 2050 nM.
